Measurements as given in patent US9931331B2 (priority 2013, dated 2018).
Residues, ends and D or L forms follow the SMILES beside them. *: point of attachment. Cbz = O=C(OCc1ccccc1)*

Key:
[1] = tested on: kidney cancer cell (Caki-1); assay: Cell viability (calcein-AM / ethidium homodimer-1), Caki-1
Experimental: (§1) Strains of cervical cancer cell (HeLa), kidney cancer cell (Caki-1), brain tumor cell (T98G), breast cancer cell (MDA-MB 435S), and colon cancer cell (DLD-1), multiple myeloma cell (RPMI-8226), and a strain of normal breast epithelial cell (MCF-10A) were available from ATCC (American Type Culture Collection, USA). The strains of cervical cancer cell (HeLa), kidney cancer cell (Caki-1), brain tumor cell (T98G), breast cancer cell (MDA-MB 435S), and colon cancer cell (DLD-1) were cultured by using a DMEM medium including 10% fetal bovine serum (FBS), 2 mM of L-glutamin, 100 i.u./ml of penicillin, and […] of streptomycin for the culture and maintenance; multiple myeloma cell (RPMI-8226) was cultured by using a RPMI1640 medium including 10% FBS, 100 i.u./ml of penicillin, and […] of streptomycin; and the strain of normal breast epithelial cell (MCF-10A) was cultured by using a mammary epithelial growth medium (MEGM) including a bovine pituitary extract, insulin, human epidermal growth factor, hydrocortisone, and antibiotics, and the culture conditions included 37° C. and 5% CO2 in an incubator.
(§2) Then, the cells were stained by using 2 μM calcein-AM and 4 μM ethidium homodimer-1, and cell viability was measured by using a fluorescent microscope (Axiovert 200M, available from Carl Zeiss, Jena, Germany).

[2] = tested on: cervical cancer cell (HeLa); assay: Cell viability (calcein-AM / ethidium homodimer-1), HeLa; conditions: 24 h
Experimental: as §1, §2

in vitro = conditions: human
Experimental: as §1, §2

[3] = tested on: multiple myeloma cell (RPMI-8226); assay: Cell viability (calcein-AM / ethidium homodimer-1), RPMI-8226; conditions: for Cell viability: RPMI-8226, 24 h
Experimental: as §1, §2

brain tumor cell (T98G) = assay: Cell viability (calcein-AM / ethidium homodimer-1), T98G; conditions: 24 h
Experimental: as §1, §2

[4] = tested on: breast cancer cell (MDA-MB 435S); assay: Cell viability (calcein-AM / ethidium homodimer-1), MDA-MB 435S; conditions: 24 h
Experimental: as §1, §2

[5] = tested on: colon cancer cell (DLD-1); assay: Cell viability (calcein-AM / ethidium homodimer-1), DLD-1
Experimental: as §1, §2

[6] = tested on: normal breast epithelial cell (MCF-10A); assay: Cell viability (calcein-AM / ethidium homodimer-1), MCF-10A; conditions: MCF-10A, 24 h
Experimental: as §1, §2

[7] = Homo sapiens, CAKI-1, 24 h, read-out: Cell viability
[8] = Homo sapiens, CAKI-1, 24 h, read-out: cell viability decreased
[9] = Homo sapiens, read-out: Cell viability
[10] = Homo sapiens, RPMI-8226, 24 h, read-out: Cell viability
[11] = Homo sapiens, MDA-MB-435S, read-out: Cell viability
[12] = Homo sapiens, DLD-1, 24 h, read-out: Cell viability

**Q.** Which viability at 0.01 µM [1, 7] does the source give for `CC(C)C[C@H](NC(=O)[C@H](Cc1ccccc1)NC(=O)c1cnccn1)B(O)O` [Bortezomib, N-(2-pyrazine)carbonyl-L-phenylalanine-L-leucine boronic acid] here?
**A.** 100%

**Q.** And the viability at 0.02 µM [1, 7]?
**A.** 78%

**Q.** And the cytotoxicity at 0.02 µM [1, 8]?
**A.** ~22%

**Q.** What about the viability at 0.02 µM [2, 9] of the same compound?
**A.** 100%

**Q.** What about the viability at 0.04 µM [2, 9] of the same compound?
**A.** 90.8%

**Q.** What about the cytotoxicity at 0.04 µM ([2]; Homo sapiens, read-out: cell viability decreased) of the same compound?
**A.** ~10%

**Q.** What about the viability at 24 h, 15 nM (in vitro) of the same compound?
**A.** 98.8%

**Q.** What about the viability at 24 h, 30 nM (in vitro) of the same compound?
**A.** 94.6%

**Q.** And the viability at 0.001 µM [3, 10]?
**A.** 100%

**Q.** What about the viability at 0.002 µM [3, 10] of the same compound?
**A.** 81.7%

**Q.** What about the viability at 0.005 µM (brain tumor cell (T98G); [9]) of the same compound?
**A.** 99.7%

**Q.** What about the viability at 0.01 µM (brain tumor cell (T98G); [9]) of the same compound?
**A.** 89.7%

**Q.** And the viability at 0.0075 µM [4, 11]?
**A.** 100%

**Q.** And the viability at 0.015 µM [4, 11]?
**A.** 91%

**Q.** What about the cancer cell toxicity ([4]; MDA-MB 435S, bortezomib alone up to 15 nM) of the same compound?
**A.** did not induce cancer cell toxicity

**Q.** What about the viability at 0.04 µM [5, 12] of the same compound?
**A.** 99.7%

**Q.** What about the viability at 0.06 µM [5, 12] of the same compound?
**A.** 95%

**Q.** What does the source list for `CC(C)C[C@@H](C=O)NC(=O)[C@H](CC(C)C)NC(=O)[C@H](CC(C)C)NC(=O)OCc1ccccc1` [MG132] (Cbz-Leu-Leu-Leu-aldehyde)?
**A.** viability at 0.5 µM [1, 7]: 100%; viability at 1 µM [1, 7]: 89.3%; cytotoxicity at 1 µM [1, 8]: ~10%; viability at 0.5 µM [2, 9]: 100%; viability at 1 µM [2, 9]: 100%; cell toxicity ([2]; MG132 alone up to 1 μM): did not exhibit cell toxicity; viability at 24 h, 0.25 μM (in vitro): 95.2%; viability at 24 h, 0.5 μM (in vitro): 92.9%; viability at 0.1 µM [3, 10]: 100%; viability at 0.2 µM [3, 10]: 99.1%; viability at 0.125 µM (brain tumor cell (T98G); [9]): 99.7%; viability at 0.25 µM (brain tumor cell (T98G); [9]): 96.5%; cancer cell toxicity (brain tumor cell (T98G); MG132 up to 0.25 μM): did not exhibit significant cancer cell toxicity; viability at 0.25 µM [4, 11]: 100%; viability at 0.5 µM [4, 11]: 93%; cancer cell toxicity ([4]; MDA-MB 435S, MG132 alone up to 0.5 μM): did not exhibit significant cancer cell toxicity; viability at 0.5 µM [5, 12]: 91.7%; viability at 1 µM [5, 12]: 81.3%; cytotoxicity at 1 µM ([5]; Homo sapiens, DLD-1, 24 h, read-out: cell viability decreased): ~19%

**Q.** Which results are given for `CC[C@H](C)[C@H](NC(=O)[C@H]([C@@H](C)CC)N(C)C(C)=O)C(=O)N[C@H](C(=O)N[C@@H](CC(C)C)C(=O)[C@@]1(C)CO1)[C@@H](C)O` [Epoxomicin]?
**A.** Cell viability ([1]; Caki-1, epoxomicin 20 nM alone, 24 h): 100; cell viability decreased ([1]; Caki-1, epoxomicin alone 40 nM, 24 h): about 35%; cancer cell toxicity ([1]; Caki-1, epoxomicin alone up to 20 nM, 24 h): did not induce cancer cell toxicity; Cell viability ([2]; epoxomicin 10 nM alone): 100; Cell viability ([2]; epoxomicin 20 nM alone): 87.73; cell viability decreased ([2]; epoxomicin alone 20 nM): about 12%; Cell viability ([6]; epoxomicin 10 nM alone): 97.62; Cell viability ([6]; epoxomicin 20 nM alone): 94.36; Cell viability ([3]; epoxomicin 2.5 nM alone): 100; Cell viability ([3]; epoxomicin 5 nM alone): 92.72; Cell viability (brain tumor cell (T98G); epoxomicin 5 nM alone): 95.66; Cell viability (brain tumor cell (T98G); epoxomicin 10 nM alone): 79.79; cell viability decreased ([4]; MDA-MB 435S, epoxomicin alone 15 nM): about 18%; Cell viability ([5]; DLD-1, epoxomicin 20 nM alone, 24 h): 99.70

**Q.** With `CC(C)C[C@H](NC(=O)CNC(=O)c1cc(Cl)ccc1Cl)B1OC(=O)C(CC(=O)O)(CC(=O)O)O1` [MLN9708] as the compound, how does the viability at 0.1 µM [1, 7] read?
**A.** 83.3%

**Q.** And the viability at 0.2 µM [1, 7]?
**A.** 75.7%

**Q.** And the cytotoxicity at 0.2 µM [1, 8]?
**A.** ~25%

**Q.** And the viability at 0.1 µM [2, 9]?
**A.** 100%

**Q.** And the viability at 0.2 µM [2, 9]?
**A.** 97.8%

**Q.** What about the viability at 24 h, 50 nM (in vitro) of the same compound?
**A.** 98%

**Q.** And the viability at 24 h, 100 nM (in vitro)?
**A.** 92.3%

**Q.** And the viability at 0.02 µM [3, 10]?
**A.** 100%

**Q.** And the viability at 0.04 µM [3, 10]?
**A.** 80.8%

**Q.** And the viability at 0.05 µM (brain tumor cell (T98G); [9])?
**A.** 92%

**Q.** And the viability at 0.1 µM (brain tumor cell (T98G); [9])?
**A.** 84.7%

**Q.** What about the viability at 0.1 µM [4, 11] of the same compound?
**A.** 97.5%

**Q.** And the viability at 0.2 µM [4, 11]?
**A.** 93.3%

**Q.** And the cytotoxicity at 0.2 µM ([4]; Homo sapiens, MDA-MB-435S, read-out: cell viability decreased)?
**A.** ~10%

**Q.** What about the viability at 0.1 µM [5, 12] of the same compound?
**A.** 98.2%

**Q.** And the viability at 0.2 µM [5, 12]?
**A.** 95.2%
